Assays:
HFD mice = assay: Hair corticosteroid levels (LC-MS/MS) in HFD mice given dietary SC-26196; assay type: in vivo, WT C57BL/6J mice
Protocol: Six weeks-old male WT C57BL/6J mice were fed for 20 weeks a LFD (D12450B, Research Diets, NJ, USA) or a HFD (D12492, Research Diets, NJ, USA). In some experiments, WT C57BL/6J mice were fed for 8 weeks a HFD and for another 8 weeks a HFD supplemented with SC-26196 (Biorbyt Ltd). SC-26196 was mixed in the HFD at a concentration of 625 mg/kg of diet corresponding to approx. 100 mg/kg of animal weight. In other experiments WT mice were fed for 10 weeks a HFD and for another 10 weeks a HFD supplemented with icosapent ethyl (Vascepa). The content of Vascepa capsules was mixed by Research Diets with the diet at a concentration of 1.125 g/kg icosapent ethyl (corresponding to approx. 180 mg/kg of animal weight). Mice were weighed every week. Glucose and insulin tolerance tests were performed as previously described (20, 21). Three to five mg of hair (2-3 mm close to the skin on the back of the mice) were cut while gently holding the mice without anaesthesia.
Corticosterone and 11-dehydrocorticosterone in hair were extracted with methanol as described elsewhere. In brief, hair (3-5 mg) was washed by addition of 2.5 mL isopropanol. After 3 minutes the isopropanol was decanted and hair samples were dried in a fume hood. After drying, hair samples were extracted in 1.8 mL methanol that contained the internal standard mixtures for 18 h at room temperature. Finally, the methanolic extract was dried down, followed by reconstitution in respective mobile phase and analysis by LC-MS/MS as previously described with minor modifications. […] Corticosterone and 11-dehydrocorticosterone were detected by using the multi reaction monitoring scan mode with respective quantifier ions of 347.1->329.2 and 345.1->121.1, and qualifier ions of 347.1->90.9 and 345.1->242.3. […] Quantification of steroid hormones was achieved by comparisons of ratios of analyte peak areas to internal standard peak areas observed in samples to those in calibrators. Measured steroid concentrations were normalized to sample weights.

NCI-H295R cells = assay: Steroid production in forskolin-treated NCI-H295R cells treated with SC-26196; assay type: cell-based, Human; settings: FADS2 inhibition (SC-26196)
Protocol: NCI-H295R cells (obtained from ATCC Cat# CRL-2128) were maintained in DMEM/F12 medium supplemented with 2.5 % Nu-Serum type I (Corning), 1 % Insulin Transferrin Selenium (ITS; Gibco), 50 U/mL penicillin and 50 µg/mL streptomycin. They were treated for 18 h with 10 µM SC-26196 or DMSO. In some experiments, NCI-H295R cells were treated or not for 48 h 66 µM EPA and in the last 24 h they were stimulated or not with forskolin (10 µM; Sigma-Aldrich).
Steroid hormones in plasma and cell culture supernatants were analyzed by LC-MS/MS as previously described (71). Fifty to hundred µL plasma or cell culture supernatants were extracted by solid phase extraction using positive pressure, followed by a dry-down under gentle stream of nitrogen. Residues were reconstituted in 100 µL of the initial LC mobile phase and 10 µL were injected for detection by the triple quadrupole mass spectrometer in multiple reaction-monitoring scan mode using positive electrospray ionization. Quantification of steroid concentrations was done by comparisons of ratios of analyte peak areas to respective peak areas of stable isotope labeled internal standards obtained in samples to those of calibrators.

[1] = tested on: primary adrenocortical cells; assay: Flow cytometry with Mitotracker Green and TMRE in primary adrenocortical cells treated with SC-26196; assay type: cell-based, WT C57BL/6J mice; settings: SC-26196 10 µM, 18 h vs DMSO; n=6
Protocol: Adrenocortical cells (CD31-CD45-) were treated for 18 h with DMSO or SC-26196 (10 µM) and were then incubated with Mitotracker Green (0.25 µM; Invitrogen), TMRE (2.5 µM; Thermofisher), for 30 min at 37°C in FACS buffer (0.5 % BSA, 2 mM EDTA in PBS) in dark. Live cells were selected by DAPI staining. FACS was performed using LSR Fortessa X20 flow cytometer and data were analyzed with the FlowJo software.

[2] = 6 weeks after SC-26196 treatment start, HFD containing 0.625 g/kg SC-26196 vs control, n=8-10

N#CC(CCCN1CCN(/N=C/c2cccnc2)CC1)(c1ccccc1)c1ccccc1 [SC-26196]
levels of 11-dehydrocorticosterone in newly-grown hair (HFD mice; 3 weeks after SC-26196 treatment start, HFD containing 0.625 g/kg SC-26196 (approx. 100 mg/kg of animal weight) vs control): reduced | 11-dehydrocorticosterone levels in the hair (HFD mice; [2]): reduced | corticosterone levels in the hair (HFD mice; [2]): reduced | 11-deoxycortisol production (NCI-H295R cells): reduced | progesterone production (NCI-H295R cells): reduced | mitochondrial load (Mitogreen staining) [1]: decreased | mitochondrial membrane potential (TMRE staining) [1]: decreased

— patent publication EP4458352A1, “EICOSAPENTAENOIC ACID ESTER DERIVATIVES FOR THE TREATMENT OF OBESITY” (Technische Universität Dresden, priority 2023, dated 2024)
